Results taken from ChEMBL document CHEMBL5038659, “Discovery of the First Examples of Threonine Tyrosine Kinase PROTAC Degraders” (J Med Chem, 2022).

Columns and labels:
[1] = biological target: T1, Protein cereblon/Dual specificity protein kinase TTK (Homo sapiens, UniProt P33981+Q96SW2); assay: Protac activity at CRBN/TTK in human HCT-116 cells assessed as TTK degradation by measuring maximum degradation after 6 hrs by Western blotting analysis relative to control; format: cell-based
Target sequence in this assay (P33981 whole entry, looked up): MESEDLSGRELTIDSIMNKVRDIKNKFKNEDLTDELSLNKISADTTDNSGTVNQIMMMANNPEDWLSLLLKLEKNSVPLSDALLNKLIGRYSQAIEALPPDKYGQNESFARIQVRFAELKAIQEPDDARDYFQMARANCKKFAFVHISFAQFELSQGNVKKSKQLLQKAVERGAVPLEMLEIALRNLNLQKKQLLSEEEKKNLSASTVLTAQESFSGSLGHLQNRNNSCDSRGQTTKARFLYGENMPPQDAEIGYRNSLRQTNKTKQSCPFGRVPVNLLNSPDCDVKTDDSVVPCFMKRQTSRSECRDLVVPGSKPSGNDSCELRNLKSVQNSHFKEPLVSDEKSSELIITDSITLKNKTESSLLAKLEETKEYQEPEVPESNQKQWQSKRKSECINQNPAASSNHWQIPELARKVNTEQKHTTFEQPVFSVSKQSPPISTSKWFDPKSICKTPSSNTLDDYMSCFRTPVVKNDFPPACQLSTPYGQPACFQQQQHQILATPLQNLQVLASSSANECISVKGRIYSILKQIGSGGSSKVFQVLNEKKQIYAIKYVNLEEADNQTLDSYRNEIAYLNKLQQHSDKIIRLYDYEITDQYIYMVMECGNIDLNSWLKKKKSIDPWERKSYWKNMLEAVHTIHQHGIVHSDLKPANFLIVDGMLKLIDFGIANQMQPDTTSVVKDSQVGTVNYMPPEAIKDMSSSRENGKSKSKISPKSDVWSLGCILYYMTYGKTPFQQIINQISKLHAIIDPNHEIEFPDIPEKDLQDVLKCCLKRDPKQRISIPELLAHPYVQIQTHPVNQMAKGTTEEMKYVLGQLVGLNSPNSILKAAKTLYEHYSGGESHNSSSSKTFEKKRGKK
Target sequence in this assay (Q96SW2 whole entry, looked up): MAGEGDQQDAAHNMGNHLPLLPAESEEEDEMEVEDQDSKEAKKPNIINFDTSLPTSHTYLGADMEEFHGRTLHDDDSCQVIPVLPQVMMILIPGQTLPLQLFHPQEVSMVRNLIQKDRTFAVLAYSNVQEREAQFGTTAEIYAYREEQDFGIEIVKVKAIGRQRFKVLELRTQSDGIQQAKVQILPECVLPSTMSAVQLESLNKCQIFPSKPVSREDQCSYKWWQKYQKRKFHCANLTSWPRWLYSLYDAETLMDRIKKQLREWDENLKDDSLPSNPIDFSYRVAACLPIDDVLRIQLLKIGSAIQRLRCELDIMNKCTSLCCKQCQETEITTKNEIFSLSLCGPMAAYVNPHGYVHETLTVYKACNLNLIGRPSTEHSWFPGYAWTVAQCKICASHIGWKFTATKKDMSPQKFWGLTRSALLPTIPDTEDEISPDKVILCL

[2] = biological target: T1, Protein cereblon/Dual specificity protein kinase TTK; assay: Protac activity at CRBN/TTK in human COLO 205 cells assessed as TTK degradation by measuring maximum degradation after 6 hrs by Western blotting analysis relative to control; format: cell-based
Target sequence in this assay (P33981 whole entry, looked up): as the sequence (P33981 whole entry, looked up) above
Target sequence in this assay (Q96SW2 whole entry, looked up): as the sequence (Q96SW2 whole entry, looked up) above

[3] = biological target: T1, Protein cereblon/Dual specificity protein kinase TTK; assay: Protac activity at CRBN/TTK in human HCT-116 cells assessed as degradation of TTK measured after 6 hrs by Western blotting analysis; format: cell-based
Target sequence in this assay (P33981 whole entry): as the sequence (P33981 whole entry, looked up) above
Target sequence in this assay (Q96SW2 whole entry): as the sequence (Q96SW2 whole entry, looked up) above

[4] = biological target: T1, Protein cereblon/Dual specificity protein kinase TTK; assay: Protac activity at CRBN/TTK in human COLO 205 cells assessed as degradation of TTK measured after 6 hrs by Western blotting analysis; format: cell-based
Target sequence in this assay (P33981 whole entry): as the sequence (P33981 whole entry, looked up) above
Target sequence in this assay (Q96SW2 whole entry): as the sequence (Q96SW2 whole entry, looked up) above

COLO 205 = assay: Antiproliferative against human COLO 205 cells assessed as cell viability after 4 days by CCK-8 assay; format: functional, cell-based; details: COLO 205, 96 h
[5] = biological target: von Hippel-Lindau disease tumor suppressor/Dual specificity protein kinase TTK (Homo sapiens, UniProt P33981+P40337); assay: Protac activity at VHL/TTK in human HCT-116 cells assessed as degradation of TTK measured after 6 hrs by Western blotting analysis; format: cell-based
Chain of von Hippel-Lindau disease tumor suppressor/Dual specificity protein kinase TTK (P33981 whole entry): as the sequence (P33981 whole entry, looked up) above
Chain of von Hippel-Lindau disease tumor suppressor/Dual specificity protein kinase TTK (P40337 whole entry): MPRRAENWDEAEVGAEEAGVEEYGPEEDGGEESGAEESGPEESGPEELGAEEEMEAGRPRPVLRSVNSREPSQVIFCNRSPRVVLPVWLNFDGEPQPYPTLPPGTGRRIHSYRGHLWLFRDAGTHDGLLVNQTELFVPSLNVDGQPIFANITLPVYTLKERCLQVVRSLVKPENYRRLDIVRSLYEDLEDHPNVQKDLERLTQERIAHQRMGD

| Compound | Emax [1] [%] | Emax [2] [%] | DC50 [3] [nM] | DC50 [4] [nM] | IC50 (COLO 205) [nM] | DC50 [5] [nM] |
| --- | --- | --- | --- | --- | --- | --- |
| CCC(=O)N[C@H]1CC[C@@H](n2c(=O)cc(C)c3cnc(Nc4ccc(N5CCN(C(=O)CCCCCCCCCC#Cc6ccc7c(c6)CN(C6CCC(=O)NC6=O)C7=O)CC5)cc4OC)nc32)CC1 (some centres not stated) | 83 | 85 | 30.2 | 5.6 |  |  |
| CCC(=O)N[C@H]1CC[C@@H](n2c(=O)cc(C)c3cnc(Nc4ccc(N5CCN(C(=O)CCCCCC#Cc6cccc7c6CN(C6CCC(=O)NC6=O)C7=O)CC5)cc4OC)nc32)CC1 (some centres not stated) | 50 | 76 | 20.3 | 5 |  |  |
| CCC(=O)N[C@H]1CC[C@@H](n2c(=O)cc(C)c3cnc(Nc4ccc(N5CCN(C(=O)CCCCCCCC#Cc6cccc7c6CN(C6CCC(=O)NC6=O)C7=O)CC5)cc4OC)nc32)CC1 (some centres not stated) | 53 | 84 | 58.1 | 7 |  |  |
| CCC(=O)N[C@H]1CC[C@@H](n2c(=O)cc(C)c3cnc(Nc4ccc(N5CCN(C(=O)CCCCCC#Cc6ccc7c(c6)CN(C6CCC(=O)NC6=O)C7=O)CC5)cc4OC)nc32)CC1 (some centres not stated) | 61 | 86 | 35 | 1.5 |  |  |
| CCC(=O)N[C@H]1CC[C@@H](n2c(=O)cc(C)c3cnc(Nc4ccc(N5CCN(C(=O)CCCCCCCCCC#Cc6cccc7c6C(=O)N(C6CCC(=O)NC6=O)C7)CC5)cc4OC)nc32)CC1 (some centres not stated) | 13 | 88 | > 1000 | 21.7 |  |  |
| CCC(=O)N[C@H]1CC[C@@H](n2c(=O)cc(C)c3cnc(Nc4ccc(N5CCN(C(=O)CCCCCCCC#Cc6cccc7c6C(=O)N(C6CCC(=O)NC6=O)C7)CC5)cc4OC)nc32)CC1 (some centres not stated) | 37 | 73 | 496 | 46 |  |  |
| CCC(=O)N[C@H]1CC[C@@H](n2c(=O)cc(C)c3cnc(Nc4ccc(N5CCN(C(=O)CCCCCCCCCC#Cc6cccc7c6CN(C6CCC(=O)NC6=O)C7=O)CC5)cc4OC)nc32)CC1 (some centres not stated) | 66 | 87 | 49.6 | 2.2 |  |  |
| CCC(=O)N[C@H]1CC[C@@H](n2c(=O)cc(C)c3cnc(Nc4ccc(N5CCN(C(=O)CCCC#Cc6cccc7c6C(=O)N(C6CCC(=O)NC6=O)C7)CC5)cc4OC)nc32)CC1 (some centres not stated) | 28 | 64 | > 1000 | 30.3 |  |  |
| CCC(=O)N[C@H]1CC[C@@H](n2c(=O)cc(C)c3cnc(Nc4ccc(N5CCN(C(=O)CCCC#Cc6ccc7c(c6)CN(C6CCC(=O)N(C)C6=O)C7=O)CC5)cc4OC)nc32)CC1 (some centres not stated) |  |  |  |  | 1500 |  |
| CCC(=O)N[C@H]1CC[C@@H](n2c(=O)cc(C)c3cnc(Nc4ccc(N5CCN(C(=O)CCCCCCCC#Cc6ccc7c(c6)CN(C6CCC(=O)NC6=O)C7=O)CC5)cc4OC)nc32)CC1 (some centres not stated) | 50 | 85 | 663 | 3 |  |  |
| CCC(=O)N[C@H]1CC[C@@H](n2c(=O)cc(C)c3cnc(Nc4ccc(N5CCN(C(=O)CCCCCC#Cc6cccc7c6C(=O)N(C6CCC(=O)NC6=O)C7)CC5)cc4OC)nc32)CC1 (some centres not stated) | 41 | 72 | > 1000 | 31.3 |  |  |
| CCC(=O)N[C@H]1CC[C@@H](n2c(=O)cc(C)c3cnc(Nc4ccc(N5CCN(C(=O)CCCCCCCCCC#Cc6ccc7c(c6)C(=O)N(C6CCC(=O)NC6=O)C7)CC5)cc4OC)nc32)CC1 (some centres not stated) | 66 | 87 | 74.5 | 19.1 |  |  |
| CCC(=O)N[C@H]1CC[C@@H](n2c(=O)cc(C)c3cnc(Nc4ccc(N5CCN(C(=O)CCCC#Cc6ccc7c(c6)C(=O)N(C6CCC(=O)NC6=O)C7)CC5)cc4OC)nc32)CC1 (some centres not stated) | 57 | 77 | 25.4 | 3.3 |  |  |
| CCC(=O)N[C@H]1CC[C@@H](n2c(=O)cc(C)c3cnc(Nc4ccc(N5CCN(C(=O)CCCCCC#Cc6ccc7c(c6)C(=O)N(C6CCC(=O)N(C)C6=O)C7)CC5)cc4OC)nc32)CC1 (some centres not stated) |  |  |  |  | 1500 |  |
| CCC(=O)N[C@H]1CC[C@@H](n2c(=O)cc(C)c3cnc(Nc4ccc(N5CCN(C(=O)CCCC#Cc6cccc7c6CN(C6CCC(=O)NC6=O)C7=O)CC5)cc4OC)nc32)CC1 (some centres not stated) | 43 | 28 | > 1000 | 599 |  |  |
| CCC(=O)N[C@H]1CC[C@@H](n2c(=O)cc(C)c3cnc(Nc4ccc(N5CCN(CCOCCC(=O)N[C@H](C(=O)N6C[C@H](O)C[C@H]6C(=O)NCc6ccc(-c7scnc7C)cc6)C(C)(C)C)CC5)cc4OC)nc32)CC1 |  |  |  |  |  | > 1000 |
| CCC(=O)N[C@H]1CC[C@@H](n2c(=O)cc(C)c3cnc(Nc4ccc(N5CCN(CCCCOCCC(=O)N[C@H](C(=O)N6C[C@H](O)C[C@H]6C(=O)NCc6ccc(-c7scnc7C)cc6)C(C)(C)C)CC5)cc4OC)nc32)CC1 |  |  |  |  |  | > 1000 |
| CCC(=O)N[C@H]1CC[C@@H](n2c(=O)cc(C)c3cnc(Nc4ccc(N5CCN(CCCCCCOCCC(=O)N[C@H](C(=O)N6C[C@H](O)C[C@H]6C(=O)NCc6ccc(-c7scnc7C)cc6)C(C)(C)C)CC5)cc4OC)nc32)CC1 |  |  |  |  |  | > 1000 |
| CCC(=O)N[C@H]1CC[C@@H](n2c(=O)cc(C)c3cnc(Nc4ccc(N5CCN(C(=O)CCCCCCCC#Cc6ccc7c(c6)C(=O)N(C6CCC(=O)NC6=O)C7)CC5)cc4OC)nc32)CC1 (some centres not stated) | 43 | 84 | 161 | 7 |  |  |
| CCC(=O)N[C@H]1CC[C@@H](n2c(=O)cc(C)c3cnc(Nc4ccc(N5CCN(CCCCCCCCOCCC(=O)N[C@H](C(=O)N6C[C@H](O)C[C@H]6C(=O)NCc6ccc(-c7scnc7C)cc6)C(C)(C)C)CC5)cc4OC)nc32)CC1 |  |  |  |  |  | > 1000 |
